Measurements published in ChEMBL document CHEMBL1201862, “PubChem BioAssay data set” (2004).
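Step 1: Grow cells in 96-well plates. Step 2: Expose to compound for 48 hours at 5 concentrations. Step 3: Interpolate endpoints linearly; if unreached, use highest concentration. GI50 is the concentration that inhibits growth by half.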 Calls of active or inactive are those of the source. Rule as the data show it: active = GI50 up to about 1.1 µM and inactive = higher.

Key:
Test in all cases: inhibition of tumour cell growth, NCI panel, 48 h
[1] = test system: CAKI-1
[2] = test system: HL-60
[3] = test system: HOP-62
[4] = test system: KM12
[5] = test system: LOX IMVI
[6] = test system: MDA-N
[7] = test system: Malme-3M
[8] = test system: NCI-H226
[9] = test system: NCI-H23
[10] = test system: NCI-H522
[11] = test system: NCI/ADR-RES
[12] = test system: OVCAR-5
[13] = test system: OVCAR-8
[14] = test system: PC-3
[15] = test system: RXF 393
[16] = test system: SF-268
[17] = test system: SNB-19
[18] = test system: SR
[19] = test system: UACC-62
[20] = test system: UO-31

CSCCC(NC(=O)OC(C)(C)C)C(=O)NCCNc1ccc(NCCNC(=O)C(CCSC)NC(=O)OC(C)(C)C)c2c1C(=O)c1ccccc1C2=O (stereo not given)
GI50 [1]: 4.75 µM (inactive) | GI50 [2]: 3.01 µM (inactive) | GI50 [3]: 3.15 µM (inactive) | GI50 [4]: 5.77 µM (inactive) | GI50 [5]: 7.74 µM (inactive) | GI50 [6]: 2.74 µM (inactive) | GI50 [7]: 2.33 µM (inactive) | GI50 [8]: 6.76 µM (inactive) | GI50 [9]: 4.51 µM (inactive) | GI50 [10]: 1.39 µM (inactive) | GI50 [11]: > 74.1 µM (inactive) | GI50 [12]: 5.74 µM (inactive) | GI50 [13]: 1.96 µM (inactive) | GI50 [14]: 5.31 µM (inactive) | GI50 [15]: 16.3 µM (inactive) | GI50 [16]: 3.37 µM (inactive) | GI50 [17]: 4.75 µM (inactive) | GI50 [18]: 2.83 µM (inactive) | GI50 [19]: 3.8 µM (inactive) | GI50 [20]: > 100 µM (inactive)

COc1ccccc1C1Nn2c(nc3ccccc3c2=O)N1c1ccc(C)cc1 (stereo not given)
GI50 [1]: 7.83 µM (inactive) | GI50 [2]: 10.6 µM (inactive) | GI50 [3]: 6.32 µM (inactive) | GI50 [4]: 11.2 µM (inactive) | GI50 [5]: 7.62 µM (inactive) | GI50 [6]: 5.83 µM (inactive) | GI50 [7]: 14.4 µM (inactive) | GI50 [8]: 2.77 µM (inactive) | GI50 [9]: 10.9 µM (inactive) | GI50 [10]: 7.8 µM (inactive) | GI50 [11]: 9.06 µM (inactive) | GI50 [12]: 10.4 µM (inactive) | GI50 [13]: 5.11 µM (inactive) | GI50 [14]: 2.71 µM (inactive) | GI50 [15]: 10 µM (inactive) | GI50 [16]: 6.85 µM (inactive) | GI50 [17]: 6.59 µM (inactive) | GI50 [18]: 1.38 µM (inactive) | GI50 [19]: 9.31 µM (inactive) | GI50 [20]: 6.73 µM (inactive)

Cc1ccc(C(=O)/C=C2\Nc3ccccc3NC2=O)cc1
GI50 [1]: 2.44 µM (inactive) | GI50 [2]: > 100 µM (inactive) | GI50 [3]: 2.04 µM (inactive) | GI50 [4]: 17.1 µM (inactive) | GI50 [5]: 7.94 µM (inactive) | GI50 [6]: 32.6 µM (inactive) | GI50 [7]: 2.48 µM (inactive) | GI50 [8]: 1.65 µM (inactive) | GI50 [9]: 8.05 µM (inactive) | GI50 [10]: 2.49 µM (inactive) | GI50 [11]: 5.13 µM (inactive) | GI50 [12]: 29.4 µM (inactive) | GI50 [13]: 3.08 µM (inactive) | GI50 [14]: 4.84 µM (inactive) | GI50 [15]: 2.42 µM (inactive) | GI50 [16]: 5.96 µM (inactive) | GI50 [17]: 10.6 µM (inactive) | GI50 [18]: 15.5 µM (inactive) | GI50 [19]: 2.26 µM (inactive) | GI50 [20]: 4.38 µM (inactive)

O=C1C(Cl)C(c2cc3cc(Br)ccc3nc2Cl)N1c1ccc(F)c(Cl)c1 (stereo not given)
GI50 [1]: 0.857 µM (active) | GI50 [2]: 2.47 µM (inactive) | GI50 [3]: 1.76 µM (inactive) | GI50 [4]: 3.21 µM (inactive) | GI50 [5]: 0.055 µM (active) | GI50 [6]: 7.03 µM (inactive) | GI50 [7]: 11 µM (inactive) | GI50 [8]: 6.7 µM (inactive) | GI50 [9]: 3.83 µM (inactive) | GI50 [10]: 0.275 µM (active) | GI50 [11]: 5.57 µM (inactive) | GI50 [12]: 12 µM (inactive) | GI50 [13]: 6.14 µM (inactive) | GI50 [14]: 3.59 µM (inactive) | GI50 [15]: 5.4 µM (inactive) | GI50 [16]: 2.99 µM (inactive) | GI50 [17]: 9.73 µM (inactive) | GI50 [18]: 1.03 µM (active) | GI50 [19]: 9.12 µM (inactive) | GI50 [20]: 0.118 µM (active)

CC(C)(C)c1cc(C(O)(C(=O)O)C(=O)O)cc(C(C)(C)C)c1O
GI50 [1]: > 100 µM (inactive) | GI50 [2]: > 100 µM (inactive) | GI50 [3]: > 100 µM (inactive) | GI50 [4]: > 100 µM (inactive) | GI50 [5]: > 100 µM (inactive) | GI50 [6]: > 100 µM (inactive) | GI50 [7]: > 100 µM (inactive) | GI50 [8]: > 100 µM (inactive) | GI50 [9]: > 100 µM (inactive) | GI50 [10]: > 100 µM (inactive) | GI50 [11]: > 100 µM (inactive) | GI50 [12]: > 100 µM (inactive) | GI50 [13]: > 100 µM (inactive) | GI50 [14]: > 100 µM (inactive) | GI50 [15]: > 100 µM (inactive) | GI50 [16]: > 100 µM (inactive) | GI50 [17]: > 100 µM (inactive) | GI50 [18]: > 100 µM (inactive) | GI50 [19]: > 100 µM (inactive) | GI50 [20]: > 100 µM (inactive)

N=C(N)NS(=O)(=O)c1ccc(Nc2c3ccccc3nc3ccc(C(=O)Nc4ccc(S(N)(=O)=O)cc4)cc23)cc1
GI50 [1]: > 100 µM (inactive) | GI50 [2]: > 100 µM (inactive) | GI50 [3]: > 100 µM (inactive) | GI50 [4]: > 100 µM (inactive) | GI50 [5]: > 100 µM (inactive) | GI50 [6]: > 100 µM (inactive) | GI50 [7]: > 100 µM (inactive) | GI50 [8]: > 100 µM (inactive) | GI50 [9]: > 100 µM (inactive) | GI50 [10]: > 100 µM (inactive) | GI50 [11]: > 100 µM (inactive) | GI50 [12]: > 100 µM (inactive) | GI50 [13]: > 100 µM (inactive) | GI50 [14]: > 100 µM (inactive) | GI50 [15]: > 100 µM (inactive) | GI50 [16]: > 100 µM (inactive) | GI50 [17]: > 100 µM (inactive) | GI50 [18]: > 100 µM (inactive) | GI50 [19]: > 100 µM (inactive) | GI50 [20]: > 100 µM (inactive)
